The subject of the assay is T1, rPsNMO.
T1 construct: gene psnmo; N-terminal His-tag, pET28a(+), E. coli BL21(DE3)
The assay can be described thus: nitrite release, colorimetric at […] nm; Lineweaver-Burk. It counts as biochemical, Psychrobacter sp. ANT206. The following applies: 30 °C, pH 7.5 potassium phosphate, 6-12 mM 2-NP; substrate pre-equilibrated 24 h with equal KOH to give the anionic form (propane-2-nitronate).

With 2-NP, the Michaelis-Menten constant (Km) amounted to 10.3 mM.

In general, Km refers to the substrate concentration at which the rate is half of its maximum.

The record behind these values is PMC11510023, “A Novel Cold-Adapted Nitronate Monooxygenase from Psychrobacter sp. ANT206: Identification, Characterization and Degradation of 2-Nitropropane at Low Temperature” (Microorganisms, 2024).
